From patent US9586952B2, “Polycyclic estrogen receptor modulators and uses thereof” (SERAGON PHARMACEUTICALS, INC., priority 2013, dated 2017) come the findings set out here.

In one experiment the test system is MCF-7 cells. Description: MCF7 Viability Assay (Breast Cancer Cell Viability Assay). To be noted: 5 days' compound exposure, CellTiter-Glo; for IC50: Homo sapiens, MCF7, 120 h. The format is cell-based. Summed up:
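Cells (320 per well, RPMI with 10% FBS and 20 mM HEPES) adhered overnight, then were exposed 5 days to an eleven-point semilog compound series, 0.3-0.000003 μM final. Viability read by CellTiter-Glo luminescence, background-subtracted, expressed as % of untreated cells.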

The next experiment concerns the target T1, ER-α (Homo sapiens, UniProt P03372).
T1 construct: endogenous in cells; host or cells: MCF-7
T1 sequence (P03372 1-595): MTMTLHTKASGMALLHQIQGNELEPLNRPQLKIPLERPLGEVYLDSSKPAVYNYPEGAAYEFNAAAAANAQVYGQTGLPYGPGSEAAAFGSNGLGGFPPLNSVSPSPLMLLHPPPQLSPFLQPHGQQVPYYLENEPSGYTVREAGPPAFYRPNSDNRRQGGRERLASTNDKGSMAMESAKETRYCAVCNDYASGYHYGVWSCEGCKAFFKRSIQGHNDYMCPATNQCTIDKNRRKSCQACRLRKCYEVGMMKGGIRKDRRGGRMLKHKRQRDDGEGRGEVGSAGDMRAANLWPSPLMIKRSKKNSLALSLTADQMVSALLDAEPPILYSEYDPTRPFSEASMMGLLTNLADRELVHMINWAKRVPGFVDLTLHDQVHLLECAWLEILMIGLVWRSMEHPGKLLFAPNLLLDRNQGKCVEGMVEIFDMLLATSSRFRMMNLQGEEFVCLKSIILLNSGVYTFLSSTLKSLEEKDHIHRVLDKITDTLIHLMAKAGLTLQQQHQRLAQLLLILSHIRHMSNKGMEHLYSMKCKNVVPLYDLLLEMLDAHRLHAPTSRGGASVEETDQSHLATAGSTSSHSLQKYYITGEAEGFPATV
Description: Breast Cancer Cell ER-α In Cell Western Assay (SP1). The format is cell-based. To be noted: MCF-7 cells, 4 or 24 hr post compound addition, SP1 antibody; for Emax: MCF7, read-out: ER-α In Cell Western Assay (SP1) Max Response; for DC50: read-out: ER-α In Cell Western Assay (SP1) IC50. The gist of the method:
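MCF-7 cells in RPMI with 10% charcoal-stripped FBS received an eleven-point semilog series, 0.3-0.000003 μM final, for 4 or 24 hr. After fixation, ER-α stained with SP1 antibody and IRDye 800 CW, DNA with DRAQ5; % ER = 800/700 nm intensity ratio relative to untreated cells.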

Regarding `CC/C(=C(/c1ccc(/C=C/C(=O)O)cc1)c1ccc(-c2cncs2)cc1)c1cccc(OC)c1` [Example 30, (E)-3-(4-((E)-2-(3-Methoxyphenyl)-1-(4-(thiazol-5-yl)phenyl)but-1-en-1-yl)phenyl)acrylic acid], in the experiment on MCF-7 cells, the “MCF7 Viability Assay Max Response” value was “++ (++ = a single % value ≧ 40%)” and the IC50 is ≤ 0.1 µM. At ER-α, the Emax is ≥ 40% and the DC50 is ≤ 0.1 µM.
As for `CC/C(=C(/c1ccc(/C=C/C(=O)O)cc1)c1cccc(-c2cscn2)c1)c1ccccc1` [Example 12, (E)-3-(4-((E)-2-Phenyl-1-(3-(thiazol-4-yl)phenyl)but-1-en-1-yl)phenyl)acrylic acid], in the experiment with MCF-7 cells, the “MCF7 Viability Assay Max Response” value is “+ (+ = a single % value < 40%)” and the IC50 was > 0.1 µM. In addition, on ER-α, the Emax is < 40% and the DC50 is > 0.1 µM.
For the molecule `CC/C(=C(/c1ccc(/C=C/C(=O)O)cc1)c1ccc(-c2cncs2)cc1)c1ccc2occc2c1` [Example 31, (E)-3-(4-((E)-2-(Benzofuran-5-yl)-1-(4-(thiazol-5-yl)phenyl)but-1-en-1-yl)phenyl)acrylic acid], in the experiment with MCF-7 cells, the “MCF7 Viability Assay Max Response” value is on record as “++ (++ = a single % value ≧ 40%)” and the IC50 is ≤ 0.1 µM. Also, at ER-α, the Emax was ≥ 40% and the DC50 was ≤ 0.1 µM.
For `CN(C)CCn1cc(-c2ccc(/C(=C(/c3ccccc3)C3CCC3)c3ccc(/C=C/C(=O)O)cc3)cc2)cn1` [Example 70, (E)-3-(4-((E)-2-Cyclobutyl-1-(4-(1-(2-(dimethylamino)ethyl)-1H-pyrazol-4-yl)phenyl)-2-phenylvinyl)phenyl)acrylic acid], in the experiment with MCF-7 cells, the “MCF7 Viability Assay Max Response” value was “++ (++ = a single % value ≧ 40%)” and the IC50 is ≤ 0.1 µM. Moreover, on ER-α, the Emax is ≥ 40% and the DC50 is ≤ 0.1 µM.
Turning to `CC/C(=C(/c1ccc(/C=C/C(=O)O)cc1)c1ccc(-c2cncs2)c(F)c1)c1ccccc1` [Example 21, (E)-3-(4-((E)-1-(3-Fluoro-4-(thiazol-5-yl)phenyl)-2-phenylbut-1-en-1-yl)phenyl)acrylic acid], in the experiment on MCF-7 cells, the “MCF7 Viability Assay Max Response” value is “++ (++ = a single % value ≧ 40%)” and the IC50 is ≤ 0.1 µM. For the same molecule, at ER-α, the Emax was ≥ 40% and the DC50 was ≤ 0.1 µM.
For the molecule `c1ccc(/C(=C(\c2ccc(OCCN3CCCC3)cc2)c2ccc(-c3cn[nH]c3)cc2)C2CCC2)cc1` [Example 63, (Z)-4-(4-(2-cyclobutyl-2-phenyl-1-(4-(2-(pyrrolidin-1-yl)ethoxy)phenyl)vinyl)phenyl)-1H-pyrazole], in the experiment on MCF-7 cells, the “MCF7 Viability Assay Max Response” value is recorded as “++ (++ = a single % value ≧ 40%)” and the IC50 was ≤ 0.1 µM. In addition, at ER-α, the Emax is ≥ 40% and the DC50 is ≤ 0.1 µM.
With `O=C(O)/C=C/c1ccc(/C(=C(\c2ncccc2Cl)C2CCC2)c2ccc(N3CCOCC3)cc2)cc1` [Example 43, (E)-3-(4-((E)-2-(3-Chloropyridin-2-yl)-2-cyclobutyl-1-(4-morpholinophenyl)vinyl)phenyl)acrylic acid], in the experiment on MCF-7 cells, the “MCF7 Viability Assay Max Response” value was “++ (++ = a single % value ≧ 40%)” and the IC50 is ≤ 0.1 µM. On ER-α, the Emax is ≥ 40% and the DC50 is ≤ 0.1 µM.
Take `O=C(O)/C=C/c1ccc(/C(=C(\c2ccccc2)C2CCC2)c2ccc(-c3cn[nH]c3)cc2)cc1` [Example 1, (E)-3-(4-((E)-1-(4-(1H-Pyrazol-4-yl)phenyl)-2-cyclobutyl-2-phenylvinyl)phenyl)acrylic acid]: in the experiment on MCF-7 cells, the “MCF7 Viability Assay Max Response” value is recorded as “++ (++ = a single % value ≧ 40%)” and the IC50 was ≤ 0.1 µM. Further, at ER-α, the Emax is ≥ 40% and the DC50 is ≤ 0.1 µM.
On to `N#Cc1cc(N2CCOCC2)ccc1/C(=C(/c1ccc(F)cc1Cl)C1CCC1)c1ccc(/C=C/C(=O)O)cc1` [Example 60, (E)-3-(4-((E)-2-(2-Chloro-4-fluorophenyl)-1-(2-cyano-4-morpholinophenyl)-2-cyclobutylvinyl)phenyl)acrylic acid], for which, in the experiment with MCF-7 cells, the “MCF7 Viability Assay Max Response” value is listed as “++ (++ = a single % value ≧ 40%)” and the 50% inhibitory concentration (IC50) is ≤ 0.1 µM. On ER-α, the Emax was ≥ 40% and the DC50 was ≤ 0.1 µM.
As to `CC/C(=C(/c1ccc(/C=C/C(=O)O)cc1)c1ccc(-c2cn[nH]c2)cc1)c1ccccc1` [Example 22, (E)-3-(4-((E)-1-(4-(1H-Pyrazol-4-yl)phenyl)-2-phenylbut-1-en-1-yl)phenyl)acrylic acid], in the experiment with MCF-7 cells, the “MCF7 Viability Assay Max Response” value is “++ (++ = a single % value ≧ 40%)” and the IC50 is ≤ 0.1 µM. On ER-α, the Emax was ≥ 40% and the DC50 is ≤ 0.1 µM.
With `COc1ccc(/C(=C(\c2ccc(/C=C/C(=O)O)cc2)c2ccc(N3CCOCC3)cc2)C2CCC2)c(Cl)c1` [Example 4, (E)-3-(4-((E)-2-(2-Chloro-4-methoxyphenyl)-2-cyclobutyl-1-(4-morpholinophenyl)vinyl)phenyl)acrylic acid], in the experiment on MCF-7 cells, the “MCF7 Viability Assay Max Response” value is listed as “++ (++ = a single % value ≧ 40%)” and the IC50 is ≤ 0.1 µM. Besides, at ER-α, the Emax is ≥ 40% and the DC50 was ≤ 0.1 µM.
For the molecule `CC/C(=C(/c1ccc(/C=C/C(=O)O)cc1)c1ccc(-c2cnn(C)c2)cc1)c1ccccc1` [Example 19, (E)-3-(4-((E)-1-(4-(1-Methyl-1H-pyrazol-4-yl)phenyl)-2-phenylbut-1-en-1-yl)phenyl)acrylic acid], in the experiment on MCF-7 cells, the “MCF7 Viability Assay Max Response” value was “++ (++ = a single % value ≧ 40%)” and the IC50 was ≤ 0.1 µM. On ER-α, the Emax was ≥ 40% and the DC50 is ≤ 0.1 µM.
`O=C(O)/C=C/c1ccc(/C(=C(\c2ccccc2)C2CCC2)c2ccc(N3CCNCC3)cc2)cc1` [Example 65, (E)-3-(4-((E)-2-Cyclobutyl-2-phenyl-1-(4-(piperazin-1-yl)phenyl)vinyl)phenyl)acrylic acid]: in the experiment on MCF-7 cells, the “MCF7 Viability Assay Max Response” value was “++ (++ = a single % value ≧ 40%)” and the IC50 is ≤ 0.1 µM. Also, at ER-α, the Emax is ≥ 40% and the DC50 is ≤ 0.1 µM.
As for `O=C(O)/C=C/c1ccc(/C(=C(\c2ccc(C(F)(F)F)cc2Cl)C2CCC2)c2ccc(N3CCOCC3)cc2)cc1` [Example 48, (E)-3-(4-((E)-2-(2-Chloro-4-(trifluoromethyl)phenyl)-2-cyclobutyl-1-(4-morpholinophenyl)vinyl)phenyl)acrylic acid], in the experiment with MCF-7 cells, the “MCF7 Viability Assay Max Response” value is “++ (++ = a single % value ≧ 40%)” and the IC50 is ≤ 0.1 µM. Moreover, at ER-α, the Emax was ≥ 40% and the DC50 was ≤ 0.1 µM.
Turning to `CC/C(=C(/c1ccc(/C=C/C(=O)O)cc1)c1ccc(-c2cncs2)cc1)c1ccccc1` [Example 9, (E)-3-(4-((E)-2-Phenyl-1-(4-(thiazol-5-yl)phenyl)but-1-en-1-yl)phenyl)acrylic acid], in the experiment on MCF-7 cells, the “MCF7 Viability Assay Max Response” value was “++ (++ = a single % value ≧ 40%)” and the IC50 is ≤ 0.1 µM. Besides, on ER-α, the Emax was ≥ 40% and the DC50 is ≤ 0.1 µM.
As for `CC/C(=C(/c1ccc(/C=C/C(=O)O)cc1)c1ccc(-c2cncs2)cc1)c1ccncc1Cl` [Example 28, (E)-3-(4-((E)-2-(3-Chloropyridin-4-yl)-1-(4-(thiazol-5-yl)phenyl)but-1-en-1-yl)phenyl)acrylic acid], in the experiment on MCF-7 cells, the “MCF7 Viability Assay Max Response” value is listed as “++ (++ = a single % value ≧ 40%)” and the IC50 was ≤ 0.1 µM. In addition, on ER-α, the Emax is ≥ 40% and the DC50 is ≤ 0.1 µM.
With `O=C(O)/C=C/c1ccc(/C(=C(\c2ccc(F)cc2Cl)C2CCC2)c2ccc(-c3cn[nH]c3)cc2)cc1` [Example 37, (E)-3-(4-((E)-1-(4-(1H-Pyrazol-4-yl)phenyl)-2-(2-chloro-4-fluorophenyl)-2-cyclobutylvinyl)phenyl)acrylic acid], in the experiment on MCF-7 cells, the “MCF7 Viability Assay Max Response” value is reported as “++ (++ = a single % value ≧ 40%)” and the IC50 was ≤ 0.1 µM. In addition, on ER-α, the Emax was ≥ 40% and the DC50 is ≤ 0.1 µM.
In the case of `O=C(O)/C=C/c1ccc(/C(=C(\c2ncccc2Cl)C2CCC2)c2ccc(-c3cn[nH]c3)cc2)cc1` [Example 42, (E)-3-(4-((E)-1-(4-(1H-Pyrazol-4-yl)phenyl)-2-(3-chloropyridin-2-yl)-2-cyclobutylvinyl)phenyl)acrylic acid], in the experiment on MCF-7 cells, the “MCF7 Viability Assay Max Response” value is “++ (++ = a single % value ≧ 40%)” and the IC50 is ≤ 0.1 µM. Also, on ER-α, the Emax is ≥ 40% and the DC50 was ≤ 0.1 µM.

Usually IC50 stands for the concentration that inhibits the measured activity by half. A high value points to weaker potency.
